“And” between values parts separate entries of the source, which are not always exact repeats. Identical values can stand only once.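 Results reflect a 48-hour exposure of cells in 96-well plates to compound at five concentrations. GI50 is the concentration that inhibits growth by half. The concentration for full growth arrest is given as TGI.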
Assays:
Experiment in all cases: growth of human tumour cells (NCI), 48 h
IGROV1 ovarian = system: IGROV1 ovarian
HOP-92 NSCLC = system: HOP-92 NSCLC
MDA-MB-231 breast = system: MDA-MB-231 breast
RPMI-8226 leukemia = system: RPMI-8226 leukemia
PC-3 prostate = system: PC-3 prostate
UACC-257 melanoma = system: UACC-257 melanoma
OVCAR-5 ovarian = system: OVCAR-5 ovarian
K-562 leukemia = system: K-562 leukemia
SNB-75 CNS = system: SNB-75 CNS
SK-MEL-28 melanoma = system: SK-MEL-28 melanoma

SMILES | GI50 (IGROV1 ovarian) | TGI (IGROV1 ovarian) | GI50 (HOP-92 NSCLC) | TGI (HOP-92 NSCLC) | GI50 (MDA-MB-231 breast) | TGI (MDA-MB-231 breast) | GI50 (RPMI-8226 leukemia) | TGI (RPMI-8226 leukemia) | GI50 (PC-3 prostate) | TGI (PC-3 prostate) | GI50 (UACC-257 melanoma) | TGI (UACC-257 melanoma) [µM] | GI50 (OVCAR-5 ovarian) | TGI (OVCAR-5 ovarian) [µM] | GI50 (K-562 leukemia) | TGI (K-562 leukemia) | GI50 (SNB-75 CNS) | TGI (SNB-75 CNS) | GI50 (SK-MEL-28 melanoma) [µM] | TGI (SK-MEL-28 melanoma)
CN(C)c1ccc(/C=C/c2cc[n+](C)c(/C=C/c3ccc(N(C)C)cc3)c2)cc1 | 0.821 µM | 3.43 µM | 0.174 µM | 0.655 µM | 0.322 µM | 1.28 µM | 0.123 µM | 0.675 µM | 0.248 µM | 1.26 µM | 0.275 µM | 0.853 | 0.401 µM | 14.2 | 0.163 µM | 3.25 µM | 0.253 µM | 2.33 µM | 0.667 | 2.7 µM
CN(C)CCCNC(=O)c1cc(NC(=O)c2cc(NC(=O)CCNS(=O)(=O)c3ccc4c(c3)C(=O)c3ccccc3C4=O)cn2C)cn1C | > 100 µM | > 100 µM | > 100 µM | > 100 µM | > 100 µM | > 100 µM | > 100 µM | > 100 µM | > 100 µM | > 100 µM | > 100 µM | > 100 | > 100 µM | > 100 | > 100 µM | > 100 µM | – | – | – | –
CN(C)CCNC(=O)c1ccc(NC(=O)c2nc([N+](=O)[O-])cn2C)cc1 | – | > 100 µM | – | > 100 µM | – | > 100 µM | – | > 100 µM | – | > 100 µM | – | > 100 | – | > 100 | – | > 100 µM | – | > 100 µM | – | > 100 µM
COc1cc(C2CC(c3ccc(Nc4ccnc5cc(Cl)ccc45)cc3)=NN2c2ccc(Cl)cc2)cc(OC)c1OC (stereo unspecified) | 4.81 µM | > 100 µM | 1.64 µM | > 100 µM | 1.93 µM | 27.1 µM | – | – | 1.47 µM | > 100 µM | 2.72 µM | 36.4 | 6.08 µM | > 100 | 0.857 µM | > 100 µM | 1.11 µM | 6.68 µM | 2.66 | 55.9 µM
O=C(/C=C/c1ccc(C(F)(F)F)cc1)c1ccc(Nc2nc(NCCO)nc(Nc3ccc(Cl)cc3)n2)cc1 | 4.92 µM | 16.2 µM | 5.39 µM | 49.4 µM | 4.21 µM | 16.1 µM | 1.56 µM | 5.43 µM | 2.99 µM | 15 µM | 10.1 µM | 31.2 | 5.93 µM | 18.8 | 2.83 µM | > 100 µM | 2.05 µM | 8.71 µM | 5.88 | 18.3 µM
CSc1nc(SC)c2c(CO)c(Br)n(Cc3ccccc3)c2n1 | – | 39.3 µM | – | 41.8 µM | – | 36.5 µM | – | > 100 µM | – | > 100 µM | – | – | – | > 100 | – | – | – | 29.9 µM | – | > 100 µM
O=C1C[C@@H]2/C(=C(O)\C=C\c3ccccc3)C(=O)C=C[C@@H]2O1 | 0.385 µM | 1.56 µM | 1.59 µM | 3.21 µM | 2.13 µM | 4.21 µM | – | – | 1.95 µM | 4.9 µM | 1.83 µM | 3.9 | 1.93 µM | 3.84 | 0.449 µM | > 100 µM | 2.07 µM | 5.78 µM | 2.33 | 6.56 µM
C#CCOc1cccc(Nc2ncnc3cc(NC(=O)CCl)ccc23)c1 | 2.78 µM | 11.9 µM | 12.4 µM | 27.3 µM | 5.28 µM | 19.9 µM | 3.44 µM | 10.4 µM | 2.57 µM | 12 µM | 15.4 µM | 32.3 | 10.3 µM | 23 | 0.628 µM | 4.69 µM | – | – | 11 | 24.4 µM
COc1cc(-c2nc(SCCC(C)C)nc(Nc3ccc(S(N)(=O)=O)cc3)c2C#N)cc(OC)c1OC | 3.39 µM | > 100 µM | 1.48 µM | 4.47 µM | 2.19 µM | 7.8 µM | 1.73 µM | 6.79 µM | 2.72 µM | > 100 µM | 3.9 µM | > 100 | 3.84 µM | > 100 | 2.73 µM | > 100 µM | 2.15 µM | 54.2 µM | 4.04 | > 100 µM
CCOC(=O)c1c2c(n3ccccc13)C(=O)c1ncccc1C2=O | 0.0987 µM | 42.7 µM | 0.279 µM | 28.9 µM | 2.76 µM | > 100 µM | 0.423 µM | 19.5 µM | 0.361 µM | 14.9 µM | 0.28 µM | 4.21 | 1.8 µM | 27.5 | 0.0745 µM | > 100 µM | 0.818 µM | 13 µM | 0.134 | 33.3 µM
Cn1cc(-c2ccc(-c3ccc(C4=NC5(CC5)C(=O)N4C[C@@H]4CCN(C(=O)C5CC5)C4)cc3)cc2)cn1 | 28.7 µM | > 100 µM | 23.6 µM | > 100 µM | 11.2 µM | 37.3 µM | 0.0883 µM | 19.7 µM | 22.8 µM | > 100 µM | 39.3 µM | > 100 | 38.6 µM | > 100 | 7.11 µM | > 100 µM | 20 µM | > 100 µM | 20.3 | 79 µM
COC(=O)[C@@H](C)C[C@H](Cc1ccccc1)NC(=O)c1csc([C@@H](C[C@H](C(C)C)N(C)C(=O)[C@@H](NC(=O)[C@H]2CCCCN2C)C2CC2)OC(C)=O)n1 | 0.00104 µM and 0.00165 µM | > 16.5 µM | – | > 16.5 µM | 0.00143 µM and 0.00165 µM | > 16.5 µM | 0.000225 µM and 0.00165 µM | > 16.5 µM | 0.000211 µM and 0.00165 µM | > 16.5 µM | – | – | 0.00384 µM and 0.00604 µM | > 16.5 | 0.000313 µM and 0.00165 µM | > 16.5 µM | 0.000383 µM and 0.00165 µM | > 16.5 µM | 0.000934 | –
S=P(N1CC1)(N1CC1)N1CC1 | 38.8 µM and 280 µM | 77.2 µM and 361 µM and 507 µM | 25.2 µM and 168 µM | 50.2 µM and 376 µM and 345 µM | 529 µM | 678 µM and 777 µM | 28 µM | 92.3 µM and 792 µM and 706 µM | 310 µM | 805 µM and 834 µM | 29 µM and 272 µM | – | – | – | 24.5 µM | 834 µM and 911 µM | 20.4 µM and 186 µM | 57.7 µM and 403 µM and 498 µM | 34.7 | 72.6 µM and 574 µM
COC(=O)/C=C/c1cc2c(cc1-c1c(C(=O)O)cc(OC)c(OC)c1OC)OCO2 | – | > 10 µM | – | > 10 µM | – | > 10 µM | – | > 10 µM | – | > 10 µM | – | > 10 | – | – | – | > 10 µM | – | > 10 µM | – | > 10 µM
COc1cc2c(cc1OC)C13CCN4CC5CCOC6CC(=O)N2C1C6C5CC43 (stereo unspecified) | – | > 100 µM | – | > 100 µM | – | > 100 µM | – | > 100 µM | – | > 100 µM | – | > 100 | – | > 100 | – | – | – | – | – | > 100 µM
COc1ccc(-c2ccc(-c3ccc(C(=N)N)o3)o2)cc1 | 1.73 µM | 7.03 µM | – | – | 1.9 µM | 4.28 µM | 2.68 µM | 7.85 µM | 1.86 µM | 7.07 µM | 11.1 µM | 24.7 | 2.42 µM | 5.88 | 0.487 µM | 2.12 µM | 1.47 µM | 6.81 µM | 1.67 | 3.66 µM
O=C1c2ccccc2-c2c1c1ccccc1c(=O)n2CCCn1ccnc1 | 2.86 µM | > 100 µM | 1.83 µM | 6.45 µM | 2.08 µM | 5.8 µM | 0.73 µM | 6.26 µM | 2.04 µM | > 100 µM | – | – | 3.05 µM | 53.6 | 1.45 µM | 4.64 µM | 5.82 µM | 93.4 µM | 3.47 | > 100 µM
O=C1c2ccccc2S(=O)(=O)c2cc(-c3nn[nH]n3)ccc21 | – | > 100 µM | – | > 100 µM | – | > 100 µM | – | – | – | > 100 µM | – | > 100 | – | > 100 | – | > 100 µM | – | > 100 µM | – | > 100 µM
OCC#Cc1ccccc1C#CCCCCCC#Cc1ccccc1C#CCO | 18.7 µM | 43.3 µM | 17.6 µM | 33.3 µM | 17.2 µM | 32.6 µM | – | – | 18.1 µM | 38.8 µM | 15.7 µM | 31.4 | 12.8 µM | 28.6 | 22.4 µM | 57.7 µM | – | – | 29 | > 100 µM
Cc1cc(N2CCOCC2)cc2[nH]c(-c3c(NC[C@@H](O)c4cccc(Cl)c4)cc[nH]c3=O)nc12 | 0.912 µM | 5.28 µM | – | – | 1.22 µM | 5.37 µM | 3.22 µM | > 100 µM | 3.7 µM | > 100 µM | 0.385 µM | 7.37 | 0.673 µM | 9.66 | 2.94 µM | 13 µM | 1.15 µM | 2.47 µM | 2.15 | 13.5 µM
CCOc1ccc2nc(NC(=O)C(=O)C(c3cnc4ccccc4n3)[N+](=O)[O-])sc2c1 (stereo unspecified) | – | > 100 µM | – | > 100 µM | – | > 100 µM | – | > 100 µM | – | > 100 µM | – | > 100 | – | > 100 | – | > 100 µM | – | > 100 µM | – | –

Source: PubChem BioAssay (NCI)
